The structures appear in SMILES notation.

Assay [1] has as its system ACAT. The assay can be described thus: Assay of ACAT inhibitory activity in a specimen prepared from rabbit liver. The format is biochemical, New Zealand white rabbit. The conditions noted are these: enzyme specimen from liver of cholesterol-fed rabbit, [1-^14C]oleoyl-CoA and endogenous cholesterol. Here is the method:
1. Assay of ACAT inhibitory activity in a specimen prepared from rabbit liver
An enzyme specimen ACAT was prepared according to the method disclosed in the literature: J. Lipid. Research, 30, 681-690, 1989, from the liver of New Zealand white rabbit which had been fed with 1 % cholesterol feed for one month. The ACAT activity was determined according to the method disclosed in the literature: J. Lipid Research. 24, 1127-1134, 1983, i.e., using radioactive [1-^14C]oleoyl-CoA and endogenous cholesterol contained in the liver microsome, and calculated from the radioactivity of the labeled cholesterol oleate.

Assay [2] deals with T1, ACAT (Rattus norvegicus, UniProt O70536).
T1 construct: endogenous in cells; host or cells: rat peritoneal macrophages (primary cells)
T1 sequence (O70536 1-545): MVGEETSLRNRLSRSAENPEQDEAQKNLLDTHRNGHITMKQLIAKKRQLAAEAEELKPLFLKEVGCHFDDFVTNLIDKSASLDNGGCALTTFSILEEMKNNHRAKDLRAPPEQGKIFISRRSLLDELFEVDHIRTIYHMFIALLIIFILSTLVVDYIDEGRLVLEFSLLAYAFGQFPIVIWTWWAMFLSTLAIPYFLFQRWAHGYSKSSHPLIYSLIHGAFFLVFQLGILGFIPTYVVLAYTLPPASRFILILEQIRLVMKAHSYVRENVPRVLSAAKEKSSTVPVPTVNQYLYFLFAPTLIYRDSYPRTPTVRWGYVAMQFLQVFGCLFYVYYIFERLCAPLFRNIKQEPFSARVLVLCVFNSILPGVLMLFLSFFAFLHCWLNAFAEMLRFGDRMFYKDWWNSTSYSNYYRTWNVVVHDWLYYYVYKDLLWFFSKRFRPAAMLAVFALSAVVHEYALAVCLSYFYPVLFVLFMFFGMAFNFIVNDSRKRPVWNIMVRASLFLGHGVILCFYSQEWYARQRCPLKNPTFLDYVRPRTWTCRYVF
Nature of the assay: Assay of ACAT inhibitory activity in the macrophage derived from rat peritoneal. The format is cell-based. To be noted: 10^-6 M, radioactive oleic acid and exogenous cholesterol in liposome, read-out: ACAT inhibitory rate (%) 10^-6 M. Here is the method: 2. Assay of ACAT inhibitory activity in the macrophage derived from rat peritoneal
The rat peritoneal-derived macrophage was prepared according to the method disclosed in the literature: Biochimica et Biophysica Acta, 1126, 73-80, 1992. The ACAT activity was determined by a modified method of the method disclosed in the above literature: Biochimica et Biophysica Acta, 1126, 73-80, 1992, i.e., using radioactive [9,10-H]oleic acid and exogenous cholesterol contained in the liposome which was re-constituted according to the method disclosed in the literature: Biochimica Biophysica Acta, 1213, 127-134, 1994, and calculated from the labeled cholesterolyl oleate.

Turning to `CC(C)c1cccc(C(C)C)c1NC(=O)Nc1c(-c2ccccc2Cl)c2cccnc2n(C)c1=O` [Example 4, N-[1-methyl-4-(2-chlorophenyl)-1,2-dihydro-2-oxo-1,8-naphthyridin-3-yl]-N'-(2,6-diisopropylphenyl)urea], the “ACAT inhibitory rate (%) 10^-6 M” value with ACAT [1] came out at 87%. The inhibition at 1 µM on ACAT [2] came out at 88%.
As to `CC(C)c1cccc(C(C)C)c1NC(=O)Nc1c(-c2ccccc2Cl)c2ccncc2n(C)c1=O` [Example 6, N-[1-methyl-4-(2-chlorophenyl)-1,2-dihydro-2-oxo-1,7-naphthyridin-3-yl]-N'-(2,6-diisopropylphenyl)urea], in the assay with ACAT [1], the “ACAT inhibitory rate (%) 10^-6 M” value was found to be 82%.
As to `COc1cccc(-c2c(NC(=O)Nc3c(C(C)C)cccc3C(C)C)c(=O)n(C)c3ncccc23)c1` [Example 7, N-[1-methyl-4-(3-methoxyphenyl)-1,2-dihydro-2-oxo-1,8-naphthyridin-3-yl]-N'-(2,6-diisopropylphenyl)urea], the inhibition at 1 µM on ACAT [2] was found to be 94%.

Values taken from EP0842933B1, “NOVEL NAPHTHYRIDINE DERIVATIVES” (SUMITOMO PHARMACEUTICALS COMPANY, LIMITED, priority 1995, dated 1996).
